Assay results: EP0908457B1, “3-(1,2-benzisothiazol- and isoxazol-5-Y1)-2,4(1H,3H)-pyrimidinedione or thione and 3-(1,2-benzisothiazol- and isoxazol-5-y1)-4(3H)-pyrimidinone or thione herbicidal agents” (BASF AKTIENGESELLSCHAFT, priority 1997, dated 1999)

Experiments:
[1] = test system: Oryza sativa, (L.) Tebonnet; assay: Rice tolerance to post-transplant applications under flooded paddy conditions (Example 187), ORYSAT (Rice, Tebonnet); details: rated three to four weeks after treatment
[2] = test system: Oryza sativa, (L.) Tebonnet; assay: Rice tolerance to post-transplant applications under flooded paddy conditions (Example 188), ORYSAT (Rice, Tebonnet); details: rated three to four weeks after treatment
Sagittaria pygmaea, L. [3] = assay: Postemergence weed control under flooded paddy conditions, SAGPY (Arrowhead (Pygmaea)); format: in vivo; details: rated three to four weeks after treatment
[4] = test system: Cyperus serotinus, Rottb.; assay: Preemergence weed control under flooded paddy conditions, CYPSE (Flatsedge); format: in vivo; details: preemergence, rated three to four weeks after treatment; note: meaning of each grade not given here
[5] = test system: Echinochloa oryzoides (Ard.) Fritsch.; assay: Postemergence weed control under flooded paddy conditions, ECHORC (Watergrass (Calif.)); format: in vivo; details: rated three to four weeks after treatment
[6] = test system: Cyperus serotinus, Rottb.; assay: Postemergence weed control under flooded paddy conditions, CYPSE (Flatsedge); format: in vivo; details: rated three to four weeks after treatment
[7] = test system: Echinochloa oryzoides (Ard.) Fritsch.; assay: Preemergence weed control under flooded paddy conditions, ECHORC (Watergrass (Calif.)); format: in vivo; details: preemergence, flooded paddy, rated three to four weeks after treatment; note: meaning of each grade not given here
Cyperus iria [8] = assay: Preemergence weed control under flooded paddy conditions, CYPIR (Rice Flatsedge); format: in vivo; details: preemergence, flooded paddy, rated three to four weeks after treatment; note: meaning of each grade not given here
Cyperus iria [9] = assay: Postemergence weed control under flooded paddy conditions, CYPIR (Rice Flatsedge); format: in vivo; details: rated three to four weeks after treatment
Sagittaria pygmaea, L. [10] = assay: Preemergence weed control under flooded paddy conditions, SAGPY (Arrowhead (Pygmaea)); format: in vivo; details: preemergence, flooded paddy, rated three to four weeks after treatment; note: meaning of each grade not given here
[11] = test system: Monochoria vaginalis, Presl.; assay: Preemergence weed control under flooded paddy conditions, MOOVA (Monochoria); format: in vivo; details: preemergence, flooded paddy, rated three to four weeks after treatment; note: meaning of each grade not given here
[12] = test system: Monochoria vaginalis, Presl.; assay: Postemergence weed control under flooded paddy conditions, MOOVA (Monochoria); format: in vivo; details: rated three to four weeks after treatment

Cc1cc(O)c(-c2nsc3ccc(-n4c(=O)cc(C(F)(F)F)n(C)c4=O)cc23)cc1C [Example 11, 3-[3-(6-Hydroxy-3,4-xylyl)-1,2-benzisothiazol-5-yl]-1-methyl-6-(trifluoromethyl)-2,4(1H,3H)-pyrimidinedione]
herbicidal effect rating, ORYSAT (rice tolerance) ([1]; 0.0625 kg/ha): 2.0 | herbicidal effect rating, ORYSAT (rice tolerance) ([1]; 0.1250 kg/ha): 2.0 | herbicidal effect rating, ORYSAT (rice tolerance) ([1]; 0.2500 kg/ha): 3.0 | herbicidal effect rating, ORYSAT (rice tolerance) ([1]; 0.5000 kg/ha): 3.0 | herbicidal effect rating, ORYSAT (rice tolerance) ([2]; Rate 0.0313 kg/ha): 0.0 | herbicidal effect rating, ORYSAT (rice tolerance) ([2]; Rate 0.0625 kg/ha): 0.0 | herbicidal effect rating, ORYSAT (rice tolerance) ([2]; Rate 0.1250 kg/ha): 0.0 | herbicidal effect rating, ORYSAT (rice tolerance) ([2]; Rate 0.2500 kg/ha): 1.0 | herbicidal effect rating, ORYSAT (rice tolerance) ([2]; Rate 0.5000 kg/ha): 1.0 | herbicidal effect rating, SAGPY (Sagittaria pygmaea, L. [3]; Rate 0.0313 kg/ha): 0.0 | herbicidal effect rating, SAGPY (Sagittaria pygmaea, L. [3]; Rate 0.0625 kg/ha): 0.0 | herbicidal effect rating, SAGPY (Sagittaria pygmaea, L. [3]; Rate 0.1250 kg/ha): 0.0 | herbicidal effect rating, SAGPY (Sagittaria pygmaea, L. [3]; Rate 0.2500 kg/ha): 4.0 | herbicidal effect rating, SAGPY (Sagittaria pygmaea, L. [3]; Rate 0.5000 kg/ha): 7.0 | herbicidal effect rating, CYPSE ([4]; 0.0625 kg/ha): 2.0 | herbicidal effect rating, CYPSE ([4]; 0.1250 kg/ha): 2.0 | herbicidal effect rating, CYPSE ([4]; 0.2500 kg/ha): 2.0 | herbicidal effect rating, CYPSE ([4]; 0.5000 kg/ha): 7.0 | herbicidal effect rating, ECHORC ([5]; Rate 0.0313 kg/ha): 0.0 | herbicidal effect rating, ECHORC ([5]; Rate 0.0625 kg/ha): 0.0 | herbicidal effect rating, ECHORC ([5]; Rate 0.1250 kg/ha): 2.0 | herbicidal effect rating, ECHORC ([5]; Rate 0.2500 kg/ha): 4.0 | herbicidal effect rating, ECHORC ([5]; Rate 0.5000 kg/ha): 7.0 | herbicidal effect rating, CYPSE ([6]; Rate 0.0313 kg/ha): 0.0 | herbicidal effect rating, CYPSE ([6]; Rate 0.0625 kg/ha): 0.0 | herbicidal effect rating, CYPSE ([6]; Rate 0.1250 kg/ha): 0.0 | herbicidal effect rating, CYPSE ([6]; Rate 0.2500 kg/ha): 0.0 | herbicidal effect rating, CYPSE ([6]; Rate 0.5000 kg/ha): 0.0 | herbicidal effect rating, ECHORC ([7]; 0.0625 kg/ha): 7.0 | herbicidal effect rating, ECHORC ([7]; 0.1250 kg/ha): 8.0 | herbicidal effect rating, ECHORC ([7]; 0.2500 kg/ha): 8.0 | herbicidal effect rating, ECHORC ([7]; 0.5000 kg/ha): 9.0 | herbicidal effect rating, CYPIR (Cyperus iria [8]; 0.0625 kg/ha): 9.0 | herbicidal effect rating, CYPIR (Cyperus iria [8]; 0.1250 kg/ha): 9.0 | herbicidal effect rating, CYPIR (Cyperus iria [8]; 0.2500 kg/ha): 9.0 | herbicidal effect rating, CYPIR (Cyperus iria [8]; 0.5000 kg/ha): 9.0 | herbicidal effect rating, CYPIR (Cyperus iria [9]; Rate 0.0313 kg/ha): 8.0 | herbicidal effect rating, CYPIR (Cyperus iria [9]; Rate 0.0625 kg/ha): 9.0 | herbicidal effect rating, CYPIR (Cyperus iria [9]; Rate 0.1250 kg/ha): 9.0 | herbicidal effect rating, CYPIR (Cyperus iria [9]; Rate 0.2500 kg/ha): 9.0 | herbicidal effect rating, CYPIR (Cyperus iria [9]; Rate 0.5000 kg/ha): 9.0 | herbicidal effect rating, SAGPY (Sagittaria pygmaea, L. [10]; 0.0625 kg/ha): 0.0 | herbicidal effect rating, SAGPY (Sagittaria pygmaea, L. [10]; 0.1250 kg/ha): 0.0 | herbicidal effect rating, SAGPY (Sagittaria pygmaea, L. [10]; 0.2500 kg/ha): 2.0 | herbicidal effect rating, SAGPY (Sagittaria pygmaea, L. [10]; 0.5000 kg/ha): 9.0 | herbicidal effect rating, MOOVA ([11]; 0.0625 kg/ha): 9.0 | herbicidal effect rating, MOOVA ([11]; 0.1250 kg/ha): 9.0 | herbicidal effect rating, MOOVA ([11]; 0.2500 kg/ha): 9.0 | herbicidal effect rating, MOOVA ([11]; 0.5000 kg/ha): 9.0 | herbicidal effect rating, MOOVA ([12]; Rate 0.0313 kg/ha): 9.0 | herbicidal effect rating, MOOVA ([12]; Rate 0.0625 kg/ha): 9.0 | herbicidal effect rating, MOOVA ([12]; Rate 0.1250 kg/ha): 9.0 | herbicidal effect rating, MOOVA ([12]; Rate 0.2500 kg/ha): 9.0 | herbicidal effect rating, MOOVA ([12]; Rate 0.5000 kg/ha): 9.0

COC(=O)COc1cc(C)c(C)cc1-c1nsc2ccc(-n3c(=O)cc(C(F)(F)F)n(C)c3=O)cc12 [Example 12, Methyl {{6-{5-[3,6-dihydro-3-methyl-4-(trifluoromethyl)-2,6-dioxo-1(2H)-pyrimidinyl]-1,2-benzisothiazol-3-yl}-3,4-xylyl}oxy}acetate]
herbicidal effect rating, ORYSAT (rice tolerance) ([1]; 0.0313 kg/ha): 4.0 | herbicidal effect rating, ORYSAT (rice tolerance) ([1]; 0.0625 kg/ha): 7.0 | herbicidal effect rating, ORYSAT (rice tolerance) ([1]; 0.1250 kg/ha): 7.0 | herbicidal effect rating, ORYSAT (rice tolerance) ([1]; 0.2500 kg/ha): 8.0 | herbicidal effect rating, ORYSAT (rice tolerance) ([1]; 0.5000 kg/ha): 9.0 | herbicidal effect rating, ORYSAT (rice tolerance) ([2]; Rate 0.0313 kg/ha): 4.0 | herbicidal effect rating, ORYSAT (rice tolerance) ([2]; Rate 0.0625 kg/ha): 4.0 | herbicidal effect rating, ORYSAT (rice tolerance) ([2]; Rate 0.1250 kg/ha): 7.0 | herbicidal effect rating, ORYSAT (rice tolerance) ([2]; Rate 0.2500 kg/ha): 7.0 | herbicidal effect rating, ORYSAT (rice tolerance) ([2]; Rate 0.5000 kg/ha): 7.0 | herbicidal effect rating, SAGPY (Sagittaria pygmaea, L. [3]; Rate 0.0313 kg/ha): 0.0 | herbicidal effect rating, SAGPY (Sagittaria pygmaea, L. [3]; Rate 0.0625 kg/ha): 0.0 | herbicidal effect rating, SAGPY (Sagittaria pygmaea, L. [3]; Rate 0.1250 kg/ha): 0.0 | herbicidal effect rating, SAGPY (Sagittaria pygmaea, L. [3]; Rate 0.2500 kg/ha): 4.0 | herbicidal effect rating, SAGPY (Sagittaria pygmaea, L. [3]; Rate 0.5000 kg/ha): 9.0 | herbicidal effect rating, CYPSE ([4]; 0.0313 kg/ha): 6.0 | herbicidal effect rating, CYPSE ([4]; 0.0625 kg/ha): 7.0 | herbicidal effect rating, CYPSE ([4]; 0.1250 kg/ha): 8.0 | herbicidal effect rating, CYPSE ([4]; 0.2500 kg/ha): 7.0 | herbicidal effect rating, CYPSE ([4]; 0.5000 kg/ha): 7.0 | herbicidal effect rating, ECHORC ([5]; Rate 0.0313 kg/ha): 0.0 | herbicidal effect rating, ECHORC ([5]; Rate 0.0625 kg/ha): 2.0 | herbicidal effect rating, ECHORC ([5]; Rate 0.1250 kg/ha): 6.0 | herbicidal effect rating, ECHORC ([5]; Rate 0.2500 kg/ha): 9.0 | herbicidal effect rating, ECHORC ([5]; Rate 0.5000 kg/ha): 9.0 | herbicidal effect rating, CYPSE ([6]; Rate 0.0313 kg/ha): 0.0 | herbicidal effect rating, CYPSE ([6]; Rate 0.0625 kg/ha): 0.0 | herbicidal effect rating, CYPSE ([6]; Rate 0.5000 kg/ha): 2.0 | herbicidal effect rating, ECHORC ([7]; 0.0313 kg/ha): 9.0 | herbicidal effect rating, ECHORC ([7]; 0.0625 kg/ha): 9.0 | herbicidal effect rating, ECHORC ([7]; 0.1250 kg/ha): 9.0 | herbicidal effect rating, ECHORC ([7]; 0.2500 kg/ha): 9.0 | herbicidal effect rating, ECHORC ([7]; 0.5000 kg/ha): 9.0 | herbicidal effect rating, CYPIR (Cyperus iria [8]; 0.0313 kg/ha): 9.0 | herbicidal effect rating, CYPIR (Cyperus iria [8]; 0.0625 kg/ha): 9.0 | herbicidal effect rating, CYPIR (Cyperus iria [8]; 0.1250 kg/ha): 9.0 | herbicidal effect rating, CYPIR (Cyperus iria [8]; 0.2500 kg/ha): 9.0 | herbicidal effect rating, CYPIR (Cyperus iria [8]; 0.5000 kg/ha): 9.0 | herbicidal effect rating, CYPIR (Cyperus iria [9]; Rate 0.0313 kg/ha): 9.0 | herbicidal effect rating, CYPIR (Cyperus iria [9]; Rate 0.0625 kg/ha): 9.0 | herbicidal effect rating, CYPIR (Cyperus iria [9]; Rate 0.1250 kg/ha): 9.0 | herbicidal effect rating, CYPIR (Cyperus iria [9]; Rate 0.2500 kg/ha): 9.0 | herbicidal effect rating, CYPIR (Cyperus iria [9]; Rate 0.5000 kg/ha): 9.0 | herbicidal effect rating, SAGPY (Sagittaria pygmaea, L. [10]; 0.0313 kg/ha): 0.0 | herbicidal effect rating, SAGPY (Sagittaria pygmaea, L. [10]; 0.0625 kg/ha): 2.0 | herbicidal effect rating, SAGPY (Sagittaria pygmaea, L. [10]; 0.1250 kg/ha): 4.0 | herbicidal effect rating, SAGPY (Sagittaria pygmaea, L. [10]; 0.2500 kg/ha): 9.0 | herbicidal effect rating, SAGPY (Sagittaria pygmaea, L. [10]; 0.5000 kg/ha): 9.0 | herbicidal effect rating, MOOVA ([11]; 0.0313 kg/ha): 9.0 | herbicidal effect rating, MOOVA ([11]; 0.0625 kg/ha): 9.0 | herbicidal effect rating, MOOVA ([11]; 0.1250 kg/ha): 9.0 | herbicidal effect rating, MOOVA ([11]; 0.2500 kg/ha): 9.0 | herbicidal effect rating, MOOVA ([11]; 0.5000 kg/ha): 9.0 | herbicidal effect rating, MOOVA ([12]; Rate 0.0313 kg/ha): 9.0 | herbicidal effect rating, MOOVA ([12]; Rate 0.0625 kg/ha): 9.0 | herbicidal effect rating, MOOVA ([12]; Rate 0.1250 kg/ha): 9.0 | herbicidal effect rating, MOOVA ([12]; Rate 0.2500 kg/ha): 9.0 | herbicidal effect rating, MOOVA ([12]; Rate 0.5000 kg/ha): 9.0
